{
  "source": "paper PMC8850549",
  "about": "(Toxicology Reports, 2022)",
  "key": {"E. coli WP2 uvrA": {"system": "E. coli WP2 uvrA", "assay": "Bacterial reverse mutation test", "format": "cell-based", "conditions": "for mutagenic response (increase in mutation frequencies): with rat liver S9, preincubation and plate incorporation"}, "[1]": {"system": "Salmonella typhimurium TA100", "assay": "Bacterial reverse mutation test", "format": "cell-based", "conditions": "for mutagenic response (increase in mutation frequencies): with rat liver S9, preincubation and plate incorporation"}, "[2]": {"system": "Salmonella typhimurium TA1535", "assay": "Bacterial reverse mutation test", "format": "cell-based", "conditions": "for mutagenic response (increase in mutation frequencies): with rat liver S9, preincubation and plate incorporation; for fold increase in mutation frequencies: rat liver S9, 5000 μg/plate"}, "TA1537": {"system": "TA1537", "assay": "Bacterial reverse mutation test", "format": "cell-based, Salmonella typhimurium", "conditions": "under any condition (preincubation or plate incorporation, with or without S9)"}, "TA98": {"system": "TA98", "assay": "Bacterial reverse mutation test", "format": "cell-based, Salmonella typhimurium", "conditions": "under any condition (preincubation or plate incorporation, with or without S9)"}, "TA1535": {"system": "TA1535", "conditions": "cited from earlier work"}, "[3]": {"system": "Salmonella typhimurium and E. coli strains", "assay": "Bacterial reverse mutation test", "format": "cell-based", "conditions": "rat liver S9, solvent water"}, "bacterial mutagenicity": {"system": "bacterial mutagenicity", "conditions": "cited from earlier work"}, "[4]": {"conditions": "preincubation, solvent water, rat liver S9, 5000 μg/plate"}, "[5]": {"conditions": "plate incorporation, solvent DMSO, rat liver S9, at 5000 μg/plate only"}},
  "note": "Several values for one entry are separate records, joined by “and”; a condition that tells them apart may be missing. Equal values may be shown once. Entries after “also recorded” stand apart in the source; their conditions may differ. Read-outs that look alike come from different tables or passages of the source.",
  "data": [
    {"smiles": "CCCCN(CCCC)N=O", "note": "[NDBA, N-nitrosodibutylamine]", "values": [
      {"measurement": "fold induction, plate incorporation compared with preincubation", "setting": "E. coli WP2 uvrA; rat liver S9, solvent DMSO", "result": "higher fold inductions using the plate incorporation protocol"},
      {"measurement": "mutagenic response (increase in mutation frequencies)", "setting": "E. coli WP2 uvrA", "result": "relevant increases"},
      {"measurement": "mutagenic response (increase in mutation frequencies)", "setting": "[1]", "result": "relevant increases"},
      {"measurement": "fold induction, plate incorporation compared with preincubation", "setting": "[2]; rat liver S9, solvent DMSO", "result": "higher fold inductions using the plate incorporation protocol"},
      {"measurement": "mutagenic response (increase in mutation frequencies)", "setting": "[2]", "result": "relevant increases"}
    ]},
    {"smiles": "CCN(CC)N=O", "note": "[NDEA, N-nitrosodiethylamine]", "values": [
      {"measurement": "fold increase in mutation frequencies", "setting": "E. coli WP2 uvrA; plate incorporation, solvent DMSO, rat liver S9, top concentration 5000 μg/plate", "result": 12, "unit": "fold"},
      {"measurement": "fold change with water compared with DMSO as solvent", "setting": "E. coli WP2 uvrA; preincubation, rat liver S9", "result": "slightly increased fold changes; also recorded: slightly higher mutation frequencies"},
      {"measurement": "fold increase in mutation frequencies", "setting": "E. coli WP2 uvrA; preincubation, solvent DMSO, rat liver S9, 5000 μg/plate", "result": "~30", "unit": "fold"},
      {"measurement": "fold increase in mutation frequencies", "setting": "E. coli WP2 uvrA; [4]", "result": "~39", "unit": "fold"},
      {"measurement": "mutagenic response (increase in mutation frequencies)", "setting": "E. coli WP2 uvrA", "result": "exponential increase in mutation frequencies"},
      {"measurement": "mutagenic response", "setting": "TA1537", "result": "no response"},
      {"measurement": "mutagenic response", "setting": "TA98", "result": "no response"},
      {"measurement": "fold increase in mutation frequencies (above threshold)", "setting": "[1]; [5]", "result": "> 2", "unit": "fold"},
      {"measurement": "fold change with water compared with DMSO as solvent", "setting": "[1]; preincubation, rat liver S9", "result": "no change"},
      {"measurement": "fold increase in mutation frequencies", "setting": "[1]; [4]", "result": "about 4 fold"},
      {"measurement": "mutagenic response (increase in mutation frequencies)", "setting": "[1]", "result": "exponential increase in mutation frequencies"},
      {"measurement": "fold increase in mutation frequencies (above threshold)", "setting": "[2]; [5]", "result": "> 3", "unit": "fold"},
      {"measurement": "fold change with water compared with DMSO as solvent", "setting": "[2]; preincubation, rat liver S9", "result": "slightly increased fold changes; also recorded: slightly higher mutation frequencies"},
      {"measurement": "fold increase in mutation frequencies", "setting": "[2]; preincubation, solvent DMSO", "result": "~5 fold and 4 fold"},
      {"measurement": "fold increase in mutation frequencies", "setting": "[2]; preincubation, solvent water", "result": "~9", "unit": "fold"},
      {"measurement": "mutagenic response (increase in mutation frequencies)", "setting": "[2]", "result": "exponential increase in mutation frequencies"},
      {"measurement": "mutagenicity", "setting": "TA1535; hamster S9", "result": "mutagenic"},
      {"measurement": "mutagenicity", "setting": "TA1535; rat S9", "result": "not with rat S9"}
    ]},
    {"smiles": "CN(C)N=O", "note": "[NDMA, N-nitrosodimethylamine]", "values": [
      {"measurement": "detection of mutagenicity", "setting": "[3]; plate incorporation protocol", "result": "fails; also recorded: no clear positive response"},
      {"measurement": "detection of mutagenicity", "setting": "[3]; preincubation protocol", "result": "allows the detection of mutagenicity"},
      {"measurement": "detection of bacterial mutagenicity", "setting": "bacterial mutagenicity; plate incorporation", "result": "failed"},
      {"measurement": "detection of bacterial mutagenicity", "setting": "bacterial mutagenicity; preincubation protocol", "result": "allowed to detect"},
      {"measurement": "mutagenicity", "setting": "TA1535; hamster S9", "result": "mutagenic"},
      {"measurement": "mutagenicity", "setting": "TA1535; rat S9", "result": "not with rat S9"}
    ]},
    {"smiles": "CCCN(CCC)N=O", "note": "[NDPA, N-nitrosodipropylamine]", "values": [
      {"measurement": "mutagenic response (increase in mutation frequencies)", "setting": "E. coli WP2 uvrA", "result": "relevant increases"},
      {"measurement": "mutagenic response (increase in mutation frequencies)", "setting": "[1]", "result": "relevant increases"},
      {"measurement": "mutagenic response (increase in mutation frequencies)", "setting": "[2]", "result": "relevant increases"}
    ]}
  ]
}
